The text below walks through data of EP1586565A1, “Substituted polycyclic aryl and heteroaryl pyrazinones useful for selective inhibition of the coagulation cascade” (Pharmacia Corporation, priority 1999, dated 2000).

The structures appear in SMILES notation.

The test addresses T1, Human factor Xa (Homo sapiens, UniProt P00742).
T1 construct: leads from XII to XIIa to XIa to IXa and to the conversion of X to Xa; purchased Enzyme Research Laboratories, South Bend IN
The test can be described thus: Xa Assay. In kind it is biochemical. Particulars: for IC50 or % Inhibition Factor Xa (30 µM): % inhibition at 30 µM (cells with % or %@30, bare 0).

T1 sequence (P00742 235-488 limits assumed): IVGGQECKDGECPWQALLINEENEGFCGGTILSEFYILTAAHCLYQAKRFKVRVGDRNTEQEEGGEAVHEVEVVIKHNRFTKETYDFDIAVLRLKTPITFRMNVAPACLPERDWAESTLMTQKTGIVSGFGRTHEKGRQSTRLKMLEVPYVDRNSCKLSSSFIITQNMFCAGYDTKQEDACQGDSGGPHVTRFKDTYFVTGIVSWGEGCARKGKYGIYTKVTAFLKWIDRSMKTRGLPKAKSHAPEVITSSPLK
T1 sequence (P00742 41-179 limits assumed): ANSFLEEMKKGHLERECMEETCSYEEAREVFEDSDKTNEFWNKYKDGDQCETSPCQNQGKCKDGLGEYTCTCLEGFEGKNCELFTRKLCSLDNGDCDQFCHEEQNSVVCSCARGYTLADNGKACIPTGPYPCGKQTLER

On to `N=C(N)c1ccc(CNC(=O)Cn2c(-c3ccccc3)c(Cl)nc(NCCCc3ccccc3)c2=O)cc1` [1512-06], for which the “IC50 or % Inhibition Factor Xa (30 µM)” value is reported as 4%.

Turning to `O=C(Cn1c(-c2ccc(-c3ccccc3)cc2)c(Cl)nc(NCCc2ccccc2)c1=O)NCCc1ccncc1` [Example E-0050], the “% Inhibition Factor Xa (100 µM)” value was determined as 0%.

On to `N=C(N)c1ccc(CNC(=O)Cn2c(-c3ccsc3)c(Cl)nc(NCc3ccccc3)c2=O)cc1` [1517-01], for which the “IC50 or % Inhibition Factor Xa (30 µM)” value stood at 0%.

For the compound `Cc1c(Cl)nc(NCCc2cccnc2)c(=O)n1CC(=O)NCc1ccc(C(=N)N)cc1` [1471-8], the “IC50 or % Inhibition Factor Xa (30 µM)” value is 27%.

`N=C(N)c1ccc(CNC(=O)Cn2c(-c3ccccc3)c(Cl)nc(NCc3ccc(C(F)(F)F)cc3F)c2=O)cc1` [1512-26]: the “IC50 or % Inhibition Factor Xa (30 µM)” value came to 5%.

Regarding `CC(C)N(C)c1nc(Cl)c(-c2ccccc2)n(CC(=O)NCc2ccc(C(=N)N)cc2)c1=O` [1517-31], the “IC50 or % Inhibition Factor Xa (30 µM)” value was 0%.

For the compound `N=C(N)c1ccc(CNC(=O)Cn2c(-c3ccccc3)c(Cl)nc(NCCc3cccnc3)c2=O)cc1` [1471-16], the “IC50 or % Inhibition Factor Xa (30 µM)” value came to 23%.

As to `CC(C)CCNc1nc(Cl)c(-c2ccccc2)n(CC(=O)NCc2ccc(C(=N)N)cc2)c1=O` [1517-40], the “IC50 or % Inhibition Factor Xa (30 µM)” value is 0%.

Take `N=C(N)c1ccc(CNC(=O)Cn2c(-c3ccccc3)c(Cl)nc(NCc3ccc(Cl)cc3)c2=O)cc1` [1507-46]: the “IC50 or % Inhibition Factor Xa (30 µM)” value is recorded as 8%.

With `N=C(N)c1ccc(CNC(=O)Cn2c(-c3ccc4c(c3)OCO4)c(Cl)nc(NCCc3cccc(Cl)c3)c2=O)cc1` [1471-46], the “IC50 or % Inhibition Factor Xa (30 µM)” value turned out to be 21%.

Regarding `CC(C)Nc1nc(Cl)c(-c2cccnc2)n(CC(=O)NCc2ccc(C(=N)N)cc2)c1=O` [compound 75], the “IC50 or % Inhibition Factor Xa (30 µM)” value amounted to 9%.

For the compound `N=C(N)c1ccc(CNC(=O)Cn2c(-c3ccc4c(c3)OCO4)c(Cl)nc(NCc3ccncc3)c2=O)cc1` [1471-43], the “IC50 or % Inhibition Factor Xa (30 µM)” value was 18%.

As to `CCc1c(Cl)nc(NCc2ccncc2)c(=O)n1CC(=O)NCc1ccc(C(=N)N)cc1` [1471-59], the “IC50 or % Inhibition Factor Xa (30 µM)” value is recorded as 0%.

For the compound `N=C(N)c1ccc(CNC(=O)Cn2c(-c3ccccc3)c(Cl)nc(NCCN3CCOCC3)c2=O)cc1` [1471-12], the “IC50 or % Inhibition Factor Xa (30 µM)” value was found to be 9%.

On to `N=C(N)c1ccc(CNC(=O)Cn2c(-c3ccccc3)c(Cl)nc(NC(c3ccccc3)c3ccccc3)c2=O)cc1` [1507-35], for which the “IC50 or % Inhibition Factor Xa (30 µM)” value is on record as 28%.

For `N=C(N)c1ccc(CNC(=O)Cn2c(-c3cccc(Cl)c3)c(Cl)nc(NCCc3ccccc3)c2=O)cc1` [1471-31], the “IC50 or % Inhibition Factor Xa (30 µM)” value stood at 17%.

Turning to `N=C(N)c1ccc(CNC(=O)Cn2c(-c3ccccc3)c(Cl)nc(NC3CCCc4ccccc43)c2=O)cc1` (stereo not shown) [1507-16], the “IC50 or % Inhibition Factor Xa (30 µM)” value is given as 18%.

With `N=C(N)c1ccc(CNC(=O)Cn2c(-c3ccccc3)c(Cl)nc(NCCCCc3ccccc3)c2=O)cc1` [1507-43], the “IC50 or % Inhibition Factor Xa (30 µM)” value came to 21%.

For the compound `CCCCNc1nc(Cl)c(-c2ccccc2)n(CC(=O)NCc2ccc(C(=N)N)cc2)c1=O` [1512-14], the “IC50 or % Inhibition Factor Xa (30 µM)” value is listed as 7%.

Consider `CCCC(CCC)Nc1nc(Cl)c(-c2ccccc2)n(CC(=O)NCc2ccc(C(=N)N)cc2)c1=O` [1517-26], for which the “IC50 or % Inhibition Factor Xa (30 µM)” value came to 0%.

On to `COc1ccc(-c2c(Cl)nc(NCCc3cccc(Cl)c3)c(=O)n2CC(=O)NCCc2ccncc2)cc1` [Example E-0103], for which the “% Inhibition Factor Xa (100 µM)” value is 3%.

Consider `N=C(N)c1ccc(CNC(=O)Cn2c(-c3ccc4c(c3)OCO4)c(Cl)nc(NCCc3ccccc3)c2=O)cc1` [1471-47], for which the “IC50 or % Inhibition Factor Xa (30 µM)” value came out at 22%.

Take `O=C(Cn1c(-c2cccc(Cl)c2)c(Cl)nc(NCc2ccccc2)c1=O)NCCc1cccnc1` [Example E-0086]: the “% Inhibition Factor Xa (100 µM)” value is recorded as 4%.

Consider `Cc1c(Cl)nc(NCCc2ccccc2)c(=O)n1CC(=O)NCc1ccc(C(=N)N)cc1` [1471-7], for which the “IC50 or % Inhibition Factor Xa (30 µM)” value came to 4%.

On to `N=C(N)c1ccc(CNC(=O)Cn2c(-c3ccccc3)c(Cl)nc(NCCc3ccc(Cl)cc3)c2=O)cc1` [1471-10], for which the “IC50 or % Inhibition Factor Xa (30 µM)” value stood at 45%.

Turning to `N=C(N)c1ccc(CNC(=O)Cn2c(-c3ccccc3)c(Cl)nc(NC3CCCCCC3)c2=O)cc1` [1507-29], the “IC50 or % Inhibition Factor Xa (30 µM)” value is listed as 4%.

Consider `N=C(N)c1ccc(CNC(=O)Cn2c(-c3ccccc3O)c(Cl)nc(NC3CCC3)c2=O)cc1` [Example 66], for which the “IC50 or % Inhibition Factor Xa (30 µM)” value was determined as 0%.

As for `N=C(N)c1ccc(CNC(=O)Cn2c(-c3c(Cl)cccc3Cl)c(Cl)nc(NCc3ccccc3)c2=O)cc1` [1517-06], the “IC50 or % Inhibition Factor Xa (30 µM)” value was determined as 0%.

Turning to `N=C(N)c1ccc(CNC(=O)Cn2c(-c3ccsc3)c(Cl)nc(NC3CCC3)c2=O)cc1` [1517-07], the “IC50 or % Inhibition Factor Xa (30 µM)” value was 0%.

Consider `O=C(Cn1c(-c2ccc(Cl)cc2)c(Cl)nc(NCCN2CCOCC2)c1=O)NCCc1ccncc1` [Example E-0031], for which the “% Inhibition Factor Xa (100 µM)” value was 0%.

On to `N=C(N)c1ccc(CNC(=O)Cn2c(-c3ccccc3)c(Cl)nc(NCC3COc4ccccc4O3)c2=O)cc1` (stereo not shown) [1512-01], for which the “IC50 or % Inhibition Factor Xa (30 µM)” value is listed as 4%.

On to `N=C(N)c1ccc(CNC(=O)Cn2c(-c3ccccc3)c(Cl)nc(NCCc3ccncc3)c2=O)cc1` [1471-13], for which the “IC50 or % Inhibition Factor Xa (30 µM)” value is on record as 0%.

Take `CCCNc1nc(Cl)c(-c2ccccc2)n(CC(=O)NCc2ccc(C(=N)N)cc2)c1=O` [1517-33]: the “IC50 or % Inhibition Factor Xa (30 µM)” value was 0%.

With `C[C@@H](C(=O)NCc1ccc(C(=N)N)cc1)n1c(-c2ccccc2)c(Cl)nc(NC2CCC2)c1=O` [1517-09], the “IC50 or % Inhibition Factor Xa (30 µM)” value came to 0%.

Turning to `CC(C)Nc1ncc(-c2cccc(N)c2)n(CC(=O)NCc2ccc(C(=N)N)c(F)c2)c1=O` [Example 43], the “IC50 or % Inhibition Factor Xa (30 µM)” value is on record as 0%.

Consider `C[Si](C)(C)CNc1nc(Cl)c(-c2ccccc2)n(CC(=O)NCc2ccc(C(=N)N)cc2)c1=O` [1517-36], for which the “IC50 or % Inhibition Factor Xa (30 µM)” value was 0%.

With `CC(C)(C)CCNc1nc(Cl)c(-c2ccccc2)n(CC(=O)NCc2ccc(C(=N)N)cc2)c1=O` [1517-41], the “IC50 or % Inhibition Factor Xa (30 µM)” value is reported as 0%.

Consider `N=C(N)c1ccc(CNC(=O)Cn2c(-c3ccccc3)c(Cl)nc(NCCc3ccccn3)c2=O)cc1` [1512-47], for which the “IC50 or % Inhibition Factor Xa (30 µM)” value came out at 13%.

As for `O=C(Cn1c(-c2ccc(-c3ccccc3)cc2)c(Cl)nc(NCCc2ccc(Cl)cc2)c1=O)NCCc1ccncc1` [Example E-0118], the “% Inhibition Factor Xa (100 µM)” value is on record as 3%.

`CCCCC(CC)Nc1nc(Cl)c(-c2ccccc2)n(CC(=O)NCc2ccc(C(=N)N)cc2)c1=O` (stereo not shown) [1512-12]: the “IC50 or % Inhibition Factor Xa (30 µM)” value is given as 5%.

With `CCc1c(Cl)nc(NCCc2ccc(Cl)cc2)c(=O)n1CC(=O)NCc1ccc(C(=N)N)cc1` [1471-58], the “IC50 or % Inhibition Factor Xa (30 µM)” value worked out at 0%.

Regarding `Nc1n[nH]c2ccc(CNC(=O)Cn3c(-c4ccccc4)cnc(NCCc4ccccc4)c3=O)cc12` [Example 38], the “IC50 or % Inhibition Factor Xa (30 µM)” value is on record as 22%.

`N=C(N)c1ccc(CNC(=O)Cn2c(Cc3ccccc3)c(Cl)nc(NCCc3ccccc3)c2=O)cc1` [Example 20]: the “IC50 or % Inhibition Factor Xa (30 µM)” value stood at 6%@30.

As to `N=C(N)c1ccc(CNC(=O)Cn2c(-c3ccccc3)c(Cl)nc(NCC(c3ccccc3)c3ccccc3)c2=O)cc1` [1507-09], the “IC50 or % Inhibition Factor Xa (30 µM)” value is 13%.

With `CCc1c(Cl)nc(NCCc2cccnc2)c(=O)n1CC(=O)NCc1ccc(C(=N)N)cc1` [1471-64], the “IC50 or % Inhibition Factor Xa (30 µM)” value was 2%.

Regarding `O=C(Cn1c(-c2cccc(Cl)c2)c(Cl)nc(NCCc2ccccc2)c1=O)NCCc1cccnc1` [Example E-0089], the “% Inhibition Factor Xa (100 µM)” value is reported as 4%.

As to `CC(C)Nc1nc(Cl)c(-c2cccc(N)c2)n(CC(=O)NCCc2ccc(C(=N)N)cc2)c1=O` [Example 62], the “IC50 or % Inhibition Factor Xa (30 µM)” value is 10%.

In the case of `CSCC(C(=O)NCc1ccc(C(=N)N)cc1)n1c(-c2ccccc2)c(Cl)nc(NC2CCC2)c1=O` (stereo not shown) [1517-10], the “IC50 or % Inhibition Factor Xa (30 µM)” value was determined as 0%.

`N=C(N)c1ccc(CNC(=O)Cn2c(-c3ccccc3)c(Cl)nc(NCc3ccccc3OC(F)(F)F)c2=O)cc1` [1512-42]: the “IC50 or % Inhibition Factor Xa (30 µM)” value is recorded as 1%.

Regarding `CSCC(C(=O)NCc1ccc(C(=N)N)cc1)n1c(-c2ccccc2)c(Cl)nc(NCc2ccccc2)c1=O` (stereo not shown) [1517-04], the “IC50 or % Inhibition Factor Xa (30 µM)” value is reported as 0%.

As to `N=C(N)c1ccc(CNC(=O)Cn2c(-c3ccc4c(c3)OCO4)c(Cl)nc(NCCc3ccncc3)c2=O)cc1` [1471-45], the “IC50 or % Inhibition Factor Xa (30 µM)” value came to 24%.

Consider `O=C(Cn1c(-c2ccc(Cl)cc2)c(Cl)nc(NCc2ccncc2)c1=O)NCCc1ccncc1` [Example E-0032], for which the “% Inhibition Factor Xa (100 µM)” value is given as 0%.

On to `N=C(N)c1ccc(CNC(=O)Cn2c(-c3ccccc3)c(Cl)nc(NCc3c(F)cccc3F)c2=O)cc1` [1512-43], for which the “IC50 or % Inhibition Factor Xa (30 µM)” value amounted to 9%.

As to `N=C(N)c1ccc(CNC(=O)Cn2c(-c3cccc(Cl)c3)c(Cl)nc(NCCN3CCOCC3)c2=O)cc1` [1471-28], the “IC50 or % Inhibition Factor Xa (30 µM)” value is recorded as 8%.

With `N=C(N)c1ccc(CNC(=O)Cn2c(-c3ccccc3)c(Cl)nc(NCc3cc(C(F)(F)F)cc(C(F)(F)F)c3)c2=O)cc1` [1507-40], the “IC50 or % Inhibition Factor Xa (30 µM)” value was determined as 11%.

`O=C(Cn1c(-c2ccc(Cl)cc2)c(Cl)nc(NCCc2ccc(Cl)cc2)c1=O)NCCc1ccncc1` [Example E-0020]: the “% Inhibition Factor Xa (100 µM)” value was determined as 1%.

`CCc1c(Cl)nc(NCCc2ccncc2)c(=O)n1CC(=O)NCc1ccc(C(=N)N)cc1` [1471-61]: the “IC50 or % Inhibition Factor Xa (30 µM)” value came to 0%.

Take `N=C(N)c1ccc(CNC(=O)Cn2c(-c3ccccc3)c(Cl)nc(NCc3ccccc3Cl)c2=O)cc1` [1507-03]: the “IC50 or % Inhibition Factor Xa (30 µM)” value is reported as 21%.

Regarding `C[C@H](C(=O)NCc1ccc(C(=N)N)cc1)n1c(-c2ccccc2)c(Cl)nc(NCCc2cccc(Cl)c2)c1=O` [1517-23], the “IC50 or % Inhibition Factor Xa (30 µM)” value stood at 0%.

Turning to `N=C(N)c1ccc(CNC(=O)Cn2c(-c3c(Cl)cccc3Cl)c(Cl)nc(NCCc3cccc(Cl)c3)c2=O)cc1` [1517-24], the “IC50 or % Inhibition Factor Xa (30 µM)” value amounted to 0%.

Regarding `O=C(Cn1c(-c2cccc(Cl)c2)c(Cl)nc(NCCc2ccc(Cl)cc2)c1=O)NCCc1cccnc1` [Example E-0083], the “% Inhibition Factor Xa (100 µM)” value was determined as 3%.
